PMC4706532, “Diarylthiophenes as inhibitors of the pore-forming protein perforin” (Bioorganic & Medicinal Chemistry Letters, 2016)
Values after ≈ are worked out from the molar mass of the structure shown.

Assays:
perforin = tested on: perforin; parameters: method as in earlier work; conditions: compound concentration 100 µM; cited from earlier work
[1] = Toxicity to KHYG-1 NK cells (Trypan blue exclusion); conditions: human
Protocol: (§1) The compounds were then evaluated for their ability to block the effect of perforin delivered by whole KHYG-1 NK cells (Table 2). Employing whole NK cells is a more rigorous model of conditions in vivo than the use of isolated recombinant protein since effector cell identification of the labelled target cell and formation of an immune synapse are required for perforin release. […] After co-incubation of inhibitor with KHYG-1 NK cells in medium for 30 min at room temperature, ^51Cr-labelled K562 leukaemia target cells were added and cell lysis evaluated after 4 h incubation at 37 °C by measuring ^51Cr release. […] Viable and dead cells were counted and percent viability calculated based on total cell count (for further details see Supplementary data). […] For the purposes of this work, compounds are classified as toxic if NK cell viability falls below 70%. This is due to the importance of CTLs and NK cells in the overall immunological response which means that it is essential that any pharmacological intervention allows rapid recovery of these cytotoxic effector cells for normal immunological function.
The toxicity assay was carried out in exactly the same manner as the killing assay above, but instead of adding the labelled K562 target cells, 100 μL of RPMI 0.1% BSA was added. Cells were incubated for 4 h at 37 °C and then washed ×3 in RPMI + 0.1% BSA. Cells were then re-suspended in 200 μL of complete medium and incubated for 18−24 h at 37 °C. Trypan blue was added to each well. Viable (clear) cells and total (clear + blue) cells were counted, and the percentage of viable cells was calculated compared to DMSO treated cell control (% viability).

[2] = Plasma stability, mouse plasma; type: in vitro ADME; conditions: % parent remaining at 24 h, 37 °C
Protocol: (§2) Preliminary stability studies were carried out by incubation in human or mouse plasma at 37 °C with the percentage parent remaining measured at 24 h (Table 2). […] In mouse plasma the ratio of open to closed is 50:50%, while in human plasma this shifts to 90:10 due to the strong affinity of human serum albumin for the ring-opened form.[20] It is likely that the same phenomenon is operating in the present case and while not necessarily an issue for mouse studies, will need to be addressed in future work.
(§3) Incubation method - Mouse (CD-1, male) and human (pooled) plasma pH was adjusted to 7.4 with either 1M phosphoric acid or sodium hydroxide. Plasma was spiked with 100 uM of test compounds and divided into two parts; one part was immediately transferred to -80 °C (control), and the second part was incubated at 37 °C at 24 h.
(§4) At the end of the study duration, samples were transferred to -80 °C until ready to analyse by HPLC-DAD. On the day of analysis, control and incubated samples were thawed on wet ice and mixed.
(§5) Sample treatment for HPLC - 20 uL of samples were mixed with 80 uL (1:4 v/v) ice cold acetonitrile to precipitate the plasma proteins, centrifuged at 13,000 rpm for 5 min to obtain the clear supernatant. The supernatant was diluted with 0.01% formic acid– water (1:2 v/v) and 50 uL was injected onto the HPLC system (Agilent).
(§6) Calculation: The % loss was calculated based on peak area using the following formula: (peak area time “0”- peak area time “24h”)/peak area time “0” multiplied by 100. % Remaining = 100 - % loss.

[3] = tested on: perforin delivered by KHYG-1 NK cells; test: KHYG-1 cytotoxicity assay: lysis of K562 target cells by KHYG-1 NK cells (51Cr release); type: cell-based, human; conditions: for inhibition at 20 µM: Homo sapiens, KHYG-1 NK, read-out: KHYG-1 inhibition (% at 20 μM), compound 20 μM; for Activity against perforin delivered by whole KHYG-1 NK cells (in words): whole human NK cells, K562 targets
Protocol: as §1
KHYG-1 cells were washed and re-suspended in RPMI + 0.1% BSA at 4 × 10^5 cells/mL, and an amount of 50 μL of KHYG-1 cells was dispensed to each well of a 96-well V-bottom plate. RPMI (50 μL) + 0.1% BSA or 10% (final concentration) of serum was added to each well. Then test compounds were added to KHYG-1 cells at various concentrations up to 20 μM and incubated at room temperature for […]. 1 × 10^6 K562 target cells were labelled with 75 μCi ^51Cr in 200 μL of RPMI for 90 min at 37 °C. Cells were washed as described above and re-suspended in 5 mL of RPMI + 0.1% BSA. An amount of 50 μL of ^51Cr labelled K562 leukaemia target cells was added to each well of the KHYG-1 plate (effector/target 2:1) and incubated at 37 °C for 4 h. ^51Cr release was assayed using a Skatron harvesting press and radioactivity estimated on a Wallac Wizard 1470 automatic γ counter (Turku, Finland). The percentage of specific cytotoxicity was calculated using the following formula:
% specific lysis = […]
(maximum release - spontaneous release)
and expressed as the mean of triplicate assays ± standard error of the mean.

[4] = Plasma stability, human plasma; type: in vitro ADME; conditions: % parent remaining at 24 h, 37 °C
Protocol: as §2, §3, §4, §5, §6

recombinant perforin = target: T1, recombinant perforin (Mus musculus, UniProt P10820); parameters: method as in PMID 22244072; conditions: 2 vs HTS hit 1; cited from earlier work
T1 sequence (P10820 21-554): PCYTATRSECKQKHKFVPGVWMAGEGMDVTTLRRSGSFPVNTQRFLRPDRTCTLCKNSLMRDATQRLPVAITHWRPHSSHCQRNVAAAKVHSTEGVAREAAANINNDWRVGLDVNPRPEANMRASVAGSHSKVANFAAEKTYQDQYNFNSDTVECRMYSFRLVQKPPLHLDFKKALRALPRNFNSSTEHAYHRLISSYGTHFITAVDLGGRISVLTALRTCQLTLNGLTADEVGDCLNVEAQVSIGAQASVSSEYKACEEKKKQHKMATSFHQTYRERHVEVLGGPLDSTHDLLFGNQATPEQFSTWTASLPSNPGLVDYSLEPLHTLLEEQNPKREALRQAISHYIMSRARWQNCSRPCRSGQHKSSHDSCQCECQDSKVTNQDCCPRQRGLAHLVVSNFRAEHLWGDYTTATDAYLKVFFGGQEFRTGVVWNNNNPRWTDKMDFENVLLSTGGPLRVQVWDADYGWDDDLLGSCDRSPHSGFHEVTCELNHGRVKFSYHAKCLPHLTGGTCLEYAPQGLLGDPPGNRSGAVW

Solubility in water = conditions: water
[5] = perforin-induced lysis of K562 target cells co-incubated with KHYG-1 human NK cells, vs untreated control

O=C1NC(=S)N/C1=C/c1ccc(-c2ccc3c(c2)COC3=O)o1 [Compound 1]
Inhibition of perforin-mediated lysis of SRBC (in words) (perforin): reproducibly inhibit

NC(=O)c1ccc(-c2ccc(-c3ccc4c(c3)COC4=O)s2)cc1 [Compound 23]
viability at 24 h, 20 µM [1]: 90%
Plasma stability (% at 24 h) Mouse [2]: 75%
inhibition at 20 µM [3, 5]: 60%
KHYG-1 inhibition (% at 20 μM) ([3]; compound 20 μM, perforin-induced lysis of K562 target cells co-incubated with KHYG-1 human NK cells, vs untreated control, 20 µM): 63%
Activity against perforin delivered by whole KHYG-1 NK cells (in words) [3]: excellent activity
Plasma stability (% at 24 h) Human [4]: 46%

O=C1NC(=S)N/C1=C/c1ccc(-c2ccc3c(c2)COC3=O)s1 [Compound 2]
Fold improvement in inhibition of isolated perforin protein function over 1 (recombinant perforin): ~8 fold

NC(=O)c1ccc(-c2ccc(-c3ccc4c(c3)COC4=O)s2)cn1 [Compound 67]
viability at 24 h, 20 µM [1]: 82%
Plasma stability (% at 24 h) Mouse [2]: 66%
solubility (Solubility in water): 0.204 µg/mL (≈ 0.606 µM)
inhibition at 20 µM [3, 5]: 80%
Activity against perforin delivered by whole KHYG-1 NK cells (in words) [3]: excellent activity
Plasma stability (% at 24 h) Human [4]: 39%

NC(=O)c1ccc(-c2ccc(-c3ccc4c(c3)COC4=O)s2)cc1O [Compound 48]
viability at 24 h, 20 µM [1]: 92%
Plasma stability (% at 24 h) Mouse [2]: 75%
solubility (Solubility in water): 0.023 µg/mL (≈ 0.0655 µM)
inhibition at 20 µM [3, 5]: 20%
Activity against perforin delivered by whole KHYG-1 NK cells (in words) [3]: poor or no activity
Plasma stability (% at 24 h) Human [4]: 49%
